PubChem BioAssay (NCI)
Values joined by “and” are separate entries in the source; they are usually repeats but may differ in a detail not shown here. Identical values can stand only once.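 Compound exposure: 48 hours, 5 concentrations, 96-well plates. The concentration for 50% growth inhibition is given as GI50. TGI marks complete inhibition of growth.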

Assays:
Assay in all cases: DTP human tumour cell line panel, 48 h
NCI-H522 lung = tested on: NCI-H522 lung
NCI/ADR-RES ovarian = tested on: NCI/ADR-RES ovarian
ACHN renal = tested on: ACHN renal
CAKI-1 renal = tested on: CAKI-1 renal
IGROV1 ovarian = tested on: IGROV1 ovarian
786-0 renal = tested on: 786-0 renal
HCC-2998 colon = tested on: HCC-2998 colon
MDA-MB-231 breast = tested on: MDA-MB-231 breast
RPMI-8226 leukemia = tested on: RPMI-8226 leukemia
CCRF-CEM leukemia = tested on: CCRF-CEM leukemia
SNB-75 CNS = tested on: SNB-75 CNS

Structure (SMILES) | TGI (NCI-H522 lung) | TGI (NCI/ADR-RES ovarian) | TGI (ACHN renal) | TGI (CAKI-1 renal) | TGI (IGROV1 ovarian) | TGI (786-0 renal) | TGI (HCC-2998 colon) | TGI (MDA-MB-231 breast) | TGI (RPMI-8226 leukemia) | TGI (CCRF-CEM leukemia) | TGI (SNB-75 CNS) | GI50 (NCI-H522 lung) | GI50 (NCI/ADR-RES ovarian) | GI50 (IGROV1 ovarian) | GI50 (CCRF-CEM leukemia) | GI50 (SNB-75 CNS) | GI50 (RPMI-8226 leukemia)
OCC1OC(O[C@H]2CN3[C@H](O)[C@@H](O)[C@H](O)[C@H]3C2O)C(O)C(O)C1O (stereo partly specified) | > 100 µM | > 100 µM | > 100 µM | > 100 µM | > 100 µM | > 100 µM | > 100 µM | > 100 µM | > 100 µM | > 100 µM | – | – | – | – | – | – | –
COC(=O)C(CCSC)NC(=O)CSc1nnc(COc2ccc(Cl)cc2)n1-c1ccccc1 (stereo unspecified) | 18.1 µM | 39.2 µM | 32.1 µM | 35.9 µM | 31.1 µM | 30 µM | 18.2 µM | 31.3 µM | 34.5 µM | > 66.1 µM | 33.7 µM | – | – | – | – | – | –
CC/C=C\C/C=C\C/C=C\CCCCCCCC(=O)OC(COC(=O)CCCCCCCCCCCCCCCCC)COC1OC(CO)C(O)C(O)C1O (stereo unspecified) | > 25 µM | > 25 µM | > 25 µM | > 25 µM | > 25 µM | > 25 µM | > 25 µM | > 25 µM | > 25 µM | > 25 µM | > 25 µM | – | – | – | – | – | –
C(=N/Nc1ccc(-c2nc3ccccc3[nH]2)cc1)/c1c(-c2ccccc2)[nH]c2ccccc12 | 2.02 µM | 17.4 µM | > 100 µM | > 100 µM | > 100 µM | > 100 µM | 1.22 µM | 12 µM | 0.82 µM | > 100 µM | 59.9 µM | – | – | – | – | – | –
Cc1cccc(NC(Nc2cccc(C)c2)=C(C(Cl)=C(Cl)Cl)[N+](=O)[O-])c1 | 21 µM | 35.4 µM | 43.1 µM | 35.6 µM | 20.3 µM | 44.3 µM | > 57.8 µM | 17 µM | > 100 µM | > 100 µM | > 68.6 µM | – | – | – | – | – | –
CC(O)(C(=O)N(O)c1ccc(Cl)cc1)c1ccc(Cl)cc1 (stereo unspecified) | 46.1 µM | 86.6 µM | 62.3 µM | 83.6 µM | > 100 µM | > 100 µM | 38.7 µM | 56.7 µM | 37.3 µM | 34.4 µM | – | – | – | – | – | – | –
CNc1ccc2c(c1)Cc1ccccc1-2 | 50.8 µM | > 100 µM | > 100 µM | 90.7 µM | > 100 µM | > 100 µM | > 100 µM | > 100 µM | > 100 µM | > 100 µM | > 100 µM | – | – | – | – | – | –
Cc1ccc2c(c1)C(=O)/C(=C\c1ccc(Cl)cc1)CCS2(=O)=O | 3.28 µM | 5.52 µM | 3.83 µM | 7.82 µM | 7.56 µM | 3.49 µM | 5.43 µM | 9.41 µM | 4.81 µM | > 20.8 µM | 18.4 µM | – | – | – | – | – | –
CCOC(=O)c1[nH]c2nc(SC)nc(NC)c2c1N | > 100 µM | > 100 µM | > 100 µM | > 100 µM | > 100 µM | > 100 µM | > 100 µM | > 100 µM | > 100 µM | > 100 µM | > 100 µM | – | – | – | – | – | –
Clc1cccc(C2ON=C(c3ccccc3)N2C23CC4CC(CC(C4)C2)C3)c1Cl (stereo unspecified) | > 10 µM | > 10 µM | > 10 µM | > 10 µM | > 10 µM | > 10 µM | > 10 µM | > 10 µM | > 10 µM | > 10 µM | > 10 µM | – | – | – | – | – | –
CC1(C)OC(CCO)CN1C(=O)OCc1ccccc1 (stereo unspecified) | > 100 µM | > 100 µM | > 100 µM | > 100 µM | > 100 µM | > 100 µM | > 100 µM | > 100 µM | > 100 µM | > 100 µM | > 100 µM | – | – | – | – | – | –
O=S1(=O)c2ccccc2NC(=S)N1c1ccccc1 | > 73.3 µM | > 100 µM | > 100 µM | > 100 µM | > 100 µM | > 100 µM | 98.4 µM | > 100 µM | > 100 µM | > 100 µM | 48.3 µM | – | – | – | – | – | –
COCC(=O)OC1CCn2c1nc1c2C(=O)C(C)=C(NC(C)=O)C1=O (stereo unspecified) | 14.3 µM | 22.3 µM | 19.5 µM | 32.3 µM | 32.7 µM | 18.4 µM | 28.7 µM | 4.71 µM | 4.76 µM and 9.5 µM | 1.58 µM and 8.85 µM | 14.8 µM | 5.52 µM | 6.89 µM | 4.3 µM | 0.262 µM | – | –
COc1ccc(CCCCl)c(C2=NCCc3ccccc32)c1 | > 100 µM | > 100 µM | > 100 µM | > 100 µM | > 100 µM | > 100 µM | > 100 µM | > 100 µM | 21.7 µM | > 100 µM | > 100 µM | – | – | – | – | – | –
CC(C)(C)c1ccc2c(c1)OCc1n[nH]c(n1)COc1cc(C(C)(C)C)ccc1OCCOCCO2 | 9.07 µM | 12.4 µM | 14.8 µM | 14.6 µM | 23.2 µM | 16 µM | 13.9 µM | 25.5 µM | 8.41 µM | 26.8 µM | 19.2 µM | – | – | – | – | – | –
CCOC(=O)Cc1nn2c(=O)cc(C)nc2s1 | > 100 µM | > 100 µM | > 100 µM | > 100 µM | > 100 µM | > 100 µM | > 100 µM | > 100 µM | > 100 µM | > 100 µM | > 100 µM | – | – | – | – | – | –
COc1ccc(/C=N/Nc2nc3ccccc3c(=O)n2-c2ccccc2)c(OCc2ccccc2)c1 | > 100 µM | > 100 µM | > 100 µM | > 100 µM | > 100 µM | > 100 µM | > 100 µM | > 100 µM | > 100 µM | > 100 µM | > 100 µM | – | – | – | – | > 100 µM | > 100 µM
